Test results published in patent publication US20090060851A1, “USE OF IDEBENONE FOR THE PREPARATION OF A TOPICALLY-APPLIED DEPIGMENTATION COMPOSITION AND CORRESPONDING COMPOSITION” (priority 2005, published 2009).

Columns and labels:
skin of nude adult mice = test: Epidermal and dermal morphometry, mouse skin; assay type: in vivo
Method: Creams containing 5% and 2.5% w/w idebenone (IDB) in a neutral phase were prepared. Said creams and a cream having an identical formulation but without idebenone were applied on nude adult mice with 3 months of age. The cream with idebenone was applied on the right half of the body of the animals and the control cream on the left half according to the scheme detailed below. The animals were sacrificed 1, 2, 3 or 4 hours after applying the cream (p.a.). • Batch A: animal treated with 5% IDB (1 hour p.a.) • Batch B: animal treated with 2.5% IDB (1 hour p.a.) • Batch C: animal treated with 5% IDB (2 hours p.a.) • Batch D: animal treated with 2.5% IDB (2 hours p.a.) • Batch E: animal treated with 5% IDB (3 hours p.a.) • Batch F: animal treated with 2.5% IDB (3 hours p.a.) • Batch G: animal treated with 5% IDB (4 hours p.a.) • Batch H: animal treated with 2.5% IDB (4 hours p.a.)
Morphological and morphometric studies: Thickness of the epidermis, the horny layer, the papillary dermis and reticular dermis was measured in at least 10 different points, the result being expressed as the average of the 10 measurements. Capillary vessel diameter was also measured in at least 10 points, expressing them by means of their average. The measurements were carried out using a Quantimet 500+ (Leica) image processing equipment. […]

SK-MEL-28 [1] = test: Cell number quantitation with violet crystal; assay type: cell-based, human
Method: Cells: The study was carried out using a cell line derived from human melanoma, provided by ABAC (Asociación Banco Argentino de Células—Cell Bank of Argentina), with melanin synthesis capability (SK-MEL-28, ATCC origin). […] Study of in vitro compounds: […] After 24 hours have lapsed, the medium was replaced with 990 μl of fresh medium. 10 μl of sterile vehicle (50% propylene glycol, 30% ethanol and 20% distilled water) containing different concentrations of the compounds to be evaluated were added to this fresh medium. […] On the fourth day, the cells were not treated, and the remaining adherent cells were assayed on the fifth day according to the methods described below. The cells were thus continuously exposed to the compounds under study for the 5 days the culture lasted. All the concentrations of the compounds were studied in triplicate, comparing the mean of the 3 wells treated with the compounds with those treated with the vehicle alone. Cell number quantitation with violet crystal: A stain with a violet crystal aqueous solution was used for the purpose of determining the number of cells adhering to the plastic surviving in vitro treatment by means of indirect methods. […] The dishes were stained for 5 minutes at room temperature on a rotary platform, with gentle stirring. Then the excess colorant was decanted by turning the dish over and the entire dish was submerged 4 times in distilled water in a suitable container. After rinsing, the dishes were turned over and allowed to drip on absorbent paper until the excess water was completely removed. […] The plates were finally placed on a rotary agitator for 30 minutes at room temperature. […] In order to determine the fraction of cells surviving treatment at a specific concentration of the experimental agent, the OD590 of the treated wells (average of three measurements) was divided by the OD590 of the wells used with a control vehicle (average of three measurements).

SK-MEL-28 [2] = test: Dopaquinone content determination (OD475) in SK-MEL cells; assay type: cell-based, human
Method: In vitro determinations were performed following the method devised by Dooley et al. (Skin Pharmacol. 1994; 7:188-200) in order to evaluate the capacity of idebenone to inhibit melanogenesis, according to the process described below:
Cells: The study was carried out using a cell line derived from human melanoma, provided by ABAC (Asociación Banco Argentino de Células—Cell Bank of Argentina), with melanin synthesis capability (SK-MEL-28, ATCC origin). The cells were grown in plastic culture bottles or in 24-well plastic dishes in a modified Eagle medium (DMEM) supplemented with 10% fetal bovine serum (FBS) and were maintained at 37° C. in a 5% CO2 atmosphere.
Study of in vitro compounds: SK-MEL cells detached with trypsin were seeded on plastic 24-well dishes (density of 1×10^5 cells per well) and incubated for 24 hours in modified Eagle medium (DMEM) supplemented with 10% fetal bovine serum (FBS) prior to treating with the compound to be evaluated. After 24 hours have lapsed, the medium was replaced with 990 μl of fresh medium. 10 μl of sterile vehicle (50% propylene glycol, 30% ethanol and 20% distilled water) containing different concentrations of the compounds to be evaluated were added to this fresh medium.
Decimal dilutions of each compound in the sterile vehicle were prepared in order to obtain final concentrations of the compound to be studied ranging between 1.000 and 0.01 μg/ml. […]
[…] […] All the concentrations of the compounds were studied in triplicate, comparing the mean of the 3 wells treated with the compounds with those treated with the vehicle alone.
Melanin content determination: The SK-MEL cell melanin content was determined after stirring the culture medium and washing the cells with PBS. The cells were then lysated by means of adding 1 ml of 1N NaOH to each well and repeated manual pipetting. The raw cell extract was analyzed using a spectrophotometer at 400 and 475 nm to determine the melanin and dopaquinone content, respectively. The results were expressed as a percentage of the cell cultures treated with the vehicle.

[3] = Example 9 (similar to Example 6), dilution −2
[4] = Example 9 (similar to Example 6), dilution −3
[5] = Example 9 (similar to Example 6), dilution −4
[6] = Example 9 (similar to Example 6), dilution −5
[7] = Example 9 (similar to Example 6), dilution −6
[8] = Example 9 (similar to Example 6), dilution −7
[9] = Example 9 (similar to Example 6), dilution −8
[10] = dilution −1, treated daily 3 days, assayed day 5
[11] = dilution −2, treated 1 day, evaluated third day
[12] = dilution −2, treated daily 3 days, assayed day 5
[13] = dilution −3, treated 1 day, evaluated third day
[14] = dilution −3, treated daily 3 days, assayed day 5
[15] = dilution −4, treated 1 day, evaluated third day
[16] = dilution −4, treated 2 days, evaluated fourth day
[17] = dilution −4, treated daily 3 days, assayed day 5
[18] = dilution −4, treated for 5 days (heading: 3 days), evaluated fifth day
[19] = dilution −5, treated 1 day, evaluated third day
[20] = dilution −5, treated 2 days, evaluated fourth day
[21] = dilution −5, treated daily 3 days, assayed day 5
[22] = dilution −5, treated for 5 days (heading: 3 days), evaluated fifth day
[23] = dilution −6, treated 1 day, evaluated third day
[24] = dilution −6, treated 2 days, evaluated fourth day
[25] = dilution −6, treated for 5 days (heading: 3 days), evaluated fifth day

## COC1=C(OC)C(=O)C(CCCCCCCCCCO)=C(C)C1=O [idebenone, 6-(10-hydroxydecyl)-2,3-dimethoxy-5-methyl-1,4-benzoquinone]
Skin of nude adult mice; nude mice skin, 5% and 2.5% IDB creams versus control
  Thicknesses of the papillary dermis and the reticular dermis: did not significantly vary
Skin of nude adult mice; nude mice, topically applied
  Effect on epidermal thickness: does not substantially modify epidermal thickness
SK-MEL-28 [1]; SK-MEL-28, high concentrations
  Toxicity for cells: may be toxic for cells
SK-MEL-28 [1]; dilution −1, percentage of control vehicle
  Percentage of viable cells: 52%
SK-MEL-28 [1]; dilution −2, percentage of control vehicle
  Percentage of viable cells: 82%
SK-MEL-28 [1]; dilution −3, percentage of control vehicle
  Percentage of viable cells: 98%
SK-MEL-28 [1]; dilution −4, percentage of control vehicle
  Percentage of viable cells: 100%
SK-MEL-28 [1]; dilution −5, percentage of control vehicle
  Percentage of viable cells: 100%
SK-MEL-28 [2]; [3]
  OD475 (dopaquinone): 0.0024
  OD475 Percentage (dopaquinone): 14.45%
SK-MEL-28 [2]; [4]
  OD475 (dopaquinone): 0.0038
  OD475 Percentage (dopaquinone): 22.89%
SK-MEL-28 [2]; [5]
  OD475 (dopaquinone): 0.0133
  OD475 Percentage (dopaquinone): 80.12%
SK-MEL-28 [2]; [6]
  OD475 (dopaquinone): 0.0139
  OD475 Percentage (dopaquinone): 83.73%
SK-MEL-28 [2]; [7]
  OD475 (dopaquinone): 0.0116
  OD475 Percentage (dopaquinone): 69.87%
SK-MEL-28 [2]; [8]
  OD475 (dopaquinone): 0.0139
  OD475 Percentage (dopaquinone): 83.73%
SK-MEL-28 [2]; [9]
  OD475 (dopaquinone): 0.0133
  OD475 Percentage (dopaquinone): 80.12%
SK-MEL-28 [2]; [10]
  OD475 (dopaquinone): 0.0011
  OD475 expressed as percentage of control (dopaquinone): 9%
SK-MEL-28 [2]; [11]
  OD475 (dopaquinone): 0.0030
  OD475 Percentage (dopaquinone): 18.75%
SK-MEL-28 [2]; [12]
  OD475 (dopaquinone): 0.0016
  OD475 expressed as percentage of control (dopaquinone): 14%
SK-MEL-28 [2]; [13]
  OD475 (dopaquinone): 0.0050
  OD475 Percentage (dopaquinone): 31.25%
SK-MEL-28 [2]; [14]
  OD475 (dopaquinone): 0.0043
  OD475 expressed as percentage of control (dopaquinone): 37%
SK-MEL-28 [2]; [15]
  OD475 (dopaquinone): 0.0123
  OD475 Percentage (dopaquinone): 76.87%
SK-MEL-28 [2]; [16]
  OD475 (dopaquinone): 0.0400
  OD475 Percentage (dopaquinone): 103.62%
SK-MEL-28 [2]; [17]
  OD475 (dopaquinone): 0.0053
  OD475 expressed as percentage of control (dopaquinone): 46%
SK-MEL-28 [2]; [18]
  OD475 (dopaquinone): 0.0513
  OD475 Percentage (dopaquinone): 80.66%
SK-MEL-28 [2]; [19]
  OD475 (dopaquinone): 0.0196
  OD475 Percentage (dopaquinone): 122.5%
SK-MEL-28 [2]; [20]
  OD475 (dopaquinone): 0.0406
  OD475 Percentage (dopaquinone): 105.18%
SK-MEL-28 [2]; [21]
  OD475 (dopaquinone): 0.0040
  OD475 expressed as percentage of control (dopaquinone): 35%
SK-MEL-28 [2]; [22]
  OD475 (dopaquinone): 0.0612
  OD475 Percentage (dopaquinone): 96.22%
SK-MEL-28 [2]; [23]
  OD475 (dopaquinone): 0.0200
  OD475 Percentage (dopaquinone): 125.0%
SK-MEL-28 [2]; [24]
  OD475 (dopaquinone): 0.0273
  OD475 Percentage (dopaquinone): 70.72%
SK-MEL-28 [2]; [25]
  OD475 (dopaquinone): 0.0643
  OD475 Percentage (dopaquinone): 101.10%
